The record followed here is patent US7348427B2, “Antipathogenic benzamide compounds” (Genesoft Pharmaceuticals, Inc., priority 2001, dated 2008).

The subject of one test is S. pneumoniae ATCC 49619. The test is described as follows: MIC, NCCLS broth microdilution assay. The format is cell-based, Streptococcus pneumoniae. The conditions noted are these: Streptococcus pneumoniae, ATCC49619; H = S. pneumoniae ATCC 49619; read-out: Minimum Inhibitory Concentration (MIC). The procedure, abridged:
(§1)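 Broth microdilution per NCCLS M7-A4 (1997) guidelines; MIC recorded as minimal inhibitory concentration.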
(In general: Dilution methods test growth across graded concentrations, often in twofold steps.)

The target of test [1] is dsDNA target sequence AATTAATCAT (352 bp fragment, Plasmid B). The test is described as follows: Quantitative DNase I footprint titration, dsDNA binding. The conditions noted are these: 352 bp/B, 22° C., pH 7.0, read-out: Dissociation Constant Kd.
Another test relates to E. faecalis ATCC 29212. The test is described as follows: MIC, NCCLS broth microdilution assay. The format is cell-based, Enterococcus faecalis. The settings on record: Enterococcus faecalis, ATCC29212; C = E. faecalis ATCC 29212; read-out: Minimum Inhibitory Concentration (MIC). The procedure, abridged:
as §1

The test system of test [2] is Enterococcus faecium (ATCC 51559, a vancomycin resistant strain (VRE)). The test is described as follows: MIC, NCCLS broth microdilution assay. The conditions noted are these: Enterococcus faecium; D = E. faecium ATCC 51559; read-out: Minimum Inhibitory Concentration (MIC). The class given is cell-based. The procedure, abridged:
(§2)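 NCCLS-standard broth microdilution gives the MIC values here. The antifungal determination used a clinical microbiology manual method instead.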

Test [3] concerns Bacillus cereus (ATCC 11778). Put plainly: MIC, NCCLS broth microdilution assay. The class given is cell-based. The settings on record: Bacillus cereus, ATCC11778; A = B. cereus ATCC 11778; read-out: Minimum Inhibitory Concentration (MIC). The essentials:
as §2

The subject of test [4] is Staphylococcus aureus (ATCC 27660, a methicillin resistant strain (MRSA)). Put plainly: MIC, NCCLS broth microdilution assay. The conditions noted are these: Staphylococcus aureus; F = S. aureus ATCC 27660; read-out: Minimum Inhibitory Concentration (MIC). The format is cell-based. The essentials:
as §2

Test [5] has as its system Streptococcus pneumoniae (ATCC 51422, a penicillin resistant strain (PRSP)). The test is described as follows: MIC, NCCLS broth microdilution assay. The class given is cell-based. The conditions noted are these: Streptococcus pneumoniae; I = S. pneumoniae ATCC 51422; read-out: Minimum Inhibitory Concentration (MIC). The procedure, abridged:
as §2

For test [6], the system named is Staphylococcus epidermidis (ATCC 12228). Put plainly: MIC, NCCLS broth microdilution assay. The format is cell-based. The conditions noted are these: Staphylococcus epidermidis, ATCC12228; G = S. epidermidis ATCC 12228; read-out: Minimum Inhibitory Concentration (MIC). The essentials: as §2
In test [7] the test system is Staphylococcus aureus (ATCC 13709, a methicillin sensitive strain (MSSA)). The test is described as follows: MIC, NCCLS broth microdilution assay. The format is cell-based. The settings on record: Staphylococcus aureus; E = S. aureus ATCC 13709; read-out: Minimum Inhibitory Concentration (MIC). The essentials:
as §2

Test [8] deals with Candida albicans (ATCC 38247). The test is described as follows: Antifungal MIC assay. The format is cell-based. The conditions noted are these: Candida albicans, ATCC38247; B = C. albicans ATCC 38247; read-out: Minimum Inhibitory Concentration (MIC). The essentials:
as §2

In test [9] the target is dsDNA target sequence AATACT (310 bp fragment, Plasmid A). Put plainly: Quantitative DNase I footprint titration, dsDNA binding. The conditions noted are these: 310 bp/A, 22° C., pH 7.0, read-out: Dissociation Constant Kd.

In general, Kd refers to the free concentration of one partner at which half of the binding sites on the other are occupied at equilibrium, for simple one-to-one binding.

In brackets after ≈: the same amount, converted by molar mass. Bounds are passed on as bounds.

In the case of `Cn1cc(NC(=O)c2cc(NC(=O)c3cc(NC(=O)c4ccc(Cl)cc4F)c[nH]3)cn2C)cc1C(=O)NCCN1CCOCC1` [Compound A-3], the MIC (with S. pneumoniae ATCC 49619; with E. faecalis ATCC 29212; in test [2]; in test [3]; in test [4]; in test [5]) was at most 4 µg/mL in each case. Also, the MIC in test [6] is at most 4 µg/mL; in [7], at most 4 µg/mL; in [8] it was 12 to 32 µg/mL (≈ 18.8 to 50.1 µM). In addition, the Kd is 1 nM in test [1] and 5 nM in test [9].
